Laboratory results published in PubChem BioAssay (NCI).
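1) Cells in 96-well plates. 2) Compound, 48 h, 5 concentrations. 3) Linear interpolation between surrounding doses. 4) Unreached endpoint = highest concentration. TGI: total growth inhibition.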

How the values were obtained:
Test in all cases: DTP human tumour cell line panel, 48 h
[1] = test system: SF-268 CNS
[2] = test system: UACC-62 melanoma
[3] = test system: SNB-75 CNS
[4] = test system: HS 578T breast
[5] = test system: NCI-H226 lung
[6] = test system: MDA-MB-435
[7] = test system: SK-MEL-5 melanoma
[8] = test system: COLO 205 colon
[9] = test system: BT-549 breast
[10] = test system: EKVX NSCLC
[11] = test system: KM12 colon
[12] = test system: SN12C renal
[13] = test system: K-562 leukemia
[14] = test system: RXF 393 renal

Row | Structure (SMILES) | TGI [1] | TGI [2] | TGI [3] | TGI [4] | TGI [5] | TGI [6] | TGI [7] | TGI [8] | TGI [9] | TGI [10] | TGI [11] | TGI [12] | TGI [13] | TGI [14]
1 | Oc1ccc(NCc2cc(O)ccc2O)cc1 | 34.8 µM | 29.3 µM | 33 µM | > 100 µM | 50.4 µM | 32 µM | 38.9 µM | 62.3 µM | 25.8 µM | 31.2 µM | 42 µM | 39.3 µM | 55.2 µM | 28.8 µM
2 | O=C1NC(=O)/C(=C/c2ccc(S(=O)(=O)N/N=C/c3ccccc3)cc2)N1 | > 100 µM | > 100 µM | > 100 µM | > 100 µM | > 100 µM | > 100 µM | > 100 µM | > 100 µM | > 100 µM | > 100 µM | > 100 µM | > 100 µM | > 100 µM | > 100 µM
3 | CCn1c(SCC(=O)NNC(=S)Nc2ccc(Cl)cc2)nc2ccccc2c1=O | > 100 µM | > 100 µM | > 100 µM | > 100 µM | > 100 µM | > 100 µM | > 100 µM | > 100 µM | > 100 µM | > 100 µM | > 100 µM | > 100 µM | > 100 µM | > 100 µM
4 | N=c1oc2ccc([N+](=O)[O-])cc2cc1C(=O)Nc1ccccn1 | > 100 µM | > 100 µM | > 100 µM | 78.5 µM | > 100 µM | > 100 µM | > 100 µM | > 100 µM | > 100 µM | > 100 µM | > 100 µM | > 100 µM | > 100 µM | > 100 µM
5 | c1csc(-c2cscc2-c2cccs2)c1 | > 100 µM | > 100 µM | > 100 µM | > 100 µM | 65.4 µM | > 100 µM | > 100 µM | > 100 µM | > 100 µM | > 100 µM | > 100 µM | > 100 µM | > 100 µM | 77.7 µM
6 | c1ccc2c(c1)ncn2CCn1ccnc1 | > 100 µM | > 100 µM | > 100 µM | > 100 µM | > 100 µM | > 100 µM | > 100 µM | > 100 µM | > 100 µM | > 100 µM | > 100 µM | > 100 µM | > 100 µM | > 100 µM
7 | O=C(Nc1sccc1S(=O)(=O)c1ccc(Cl)cc1)c1ccc(Cl)cc1Cl | > 100 µM | > 100 µM | > 100 µM | > 100 µM | > 100 µM | > 100 µM | > 100 µM | > 100 µM | > 100 µM | > 100 µM | > 100 µM | > 100 µM | > 100 µM | > 100 µM
8 | CC(=O)c1c2c(cc3c1CC1(C3)Cc3ccc4c(c3C1=O)CCC4)CCC2 (stereo not drawn) | > 100 µM | > 100 µM | > 100 µM | > 100 µM | > 100 µM | 32.8 µM | 38.5 µM | 39.3 µM | > 100 µM | 96 µM | > 100 µM | > 100 µM | > 100 µM | > 100 µM
9 | c1csc(-c2ccc(-c3ccsc3)s2)c1 | > 100 µM | > 100 µM | > 100 µM | > 100 µM | > 100 µM | > 100 µM | > 100 µM | > 100 µM | > 100 µM | > 100 µM | > 100 µM | > 100 µM | > 100 µM | > 100 µM
10 | [O-]/N=N\c1on[n+](CCc2ccccc2)c1Cc1c(/N=N/[O-])on[n+]1CCc1ccccc1 | > 100 µM | > 100 µM | 40.2 µM | 62.2 µM | 98.3 µM | > 100 µM | 88 µM | > 100 µM | 78.1 µM | > 100 µM | > 100 µM | > 100 µM | 65 µM | > 100 µM
11 | CCSC1=C(C#N)C2(CCCCC2)C2=C(CC(C)(C)CC2=O)N1 | > 100 µM | > 100 µM | 71.1 µM | > 100 µM | > 100 µM | > 100 µM | > 100 µM | > 100 µM | 60.1 µM | 68.4 µM | > 100 µM | > 100 µM | > 100 µM | > 100 µM
12 | Cc1ccc(N(C)S(=O)(=O)c2ccccc2)cc1 | > 100 µM | > 100 µM | > 100 µM | > 100 µM | > 100 µM | > 100 µM | > 100 µM | > 100 µM | > 100 µM | > 100 µM | > 100 µM | > 100 µM | > 100 µM | > 100 µM
13 | COc1ccc(/C=N/NS(=O)(=O)c2ccc(/C=C3\NC(=O)N(C)C3=O)cc2)cc1 | > 100 µM | > 100 µM | > 100 µM | > 100 µM | > 100 µM | > 100 µM | > 100 µM | > 100 µM | > 100 µM | > 100 µM | > 100 µM | > 100 µM | > 100 µM | > 100 µM
14 | CC(C)(C)OC(=O)N(CCCCNC(=O)c1ccccc1)CCCNC(=O)c1ccccc1 | > 100 µM | > 100 µM | > 100 µM | > 100 µM | > 100 µM | > 100 µM | > 100 µM | > 100 µM | > 100 µM | > 100 µM | > 100 µM | > 100 µM | > 100 µM | > 100 µM
15 | CC(C)CNC(=O)c1c(NC(=O)c2ccccc2)sc2[nH]c(=O)n(-c3ccccc3)c(=O)c12 | > 100 µM | > 100 µM | 48.3 µM | > 79.1 µM | > 100 µM | > 100 µM | > 100 µM | > 100 µM | 77.4 µM | > 100 µM | > 100 µM | > 100 µM | > 86.9 µM | 40 µM
16 | COc1ccc(C(=O)/C=C/c2ccc(OCC#N)cc2)cc1OC | 85.3 µM | 36.7 µM | 22.9 µM | > 100 µM | 37.9 µM | 44.7 µM | 32.2 µM | 24.2 µM | 30 µM | 36 µM | 18.5 µM | 32.3 µM | > 100 µM | 33.8 µM
17 | Clc1cc2nnn(C3CCCCO3)c2cc1Cl (stereo not drawn) | > 100 µM | > 100 µM | > 100 µM | > 100 µM | > 100 µM | > 100 µM | > 100 µM | > 100 µM | > 100 µM | 79.4 µM | > 100 µM | > 100 µM | > 100 µM | > 100 µM
